Measured values as given in ChEMBL document CHEMBL1136900, “Discovery of aminoheterocycles as a novel beta-secretase inhibitor class: pH dependence on binding activity part 1” (Bioorg Med Chem Lett, 2009).

Assays:
[1] = Drug level in mouse brain at 20 mg/kg, iv after 30 mins; format: ADME, organism-based; design: dose 20 mg/kg, route intravenous; conditions: read-out: Drug uptake
[2] = Ratio of drug level in brain to plasma in mouse at 20 mg/kg, iv after 30 mins; format: ADME, organism-based; design: dose 20 mg/kg, route intravenous; conditions: brain and plasma, read-out: BPR
[3] = Dissociation constant, pKa of the compound; format: physicochemical

concentration at 0.5 h [1] [µM]	Kp at 0.5 h [2]	pKa [3]	SMILES
15	3.9		Nc1nc(C2(c3ccc(Cl)cc3)CCCC2)cs1
		5.5	COc1ccc(C(Cc2cc([N+](=O)[O-])ccc2OC)c2csc(N)n2)cc1 (stereo not given)
		8.1	COc1ccc(C(Cc2cc([N+](=O)[O-])ccc2OC)c2c[nH]c(N)n2)cc1 (stereo not given)
		8.3	COc1ccc(C(Cc2cc([N+](=O)[O-])ccc2OC)c2cn(C)c(N)n2)cc1 (stereo not given)
